According to ChEMBL document CHEMBL3091433, “Structure-based design of substituted hexafluoroisopropanol-arylsulfonamides as modulators of RORc” (Bioorg Med Chem Lett, 2013):

Key:
[1] = biological target: T1, Nuclear receptor subfamily 1 group I member 2 (Homo sapiens, UniProt O75469); assay: Agonist activity at GAL4-fused human PXR expressed in HEK293T cells assessed as activation of basal transcriptional activity after 20 hrs by dual-glo luciferase reporter gene assay; format: cell-based, HEK-293T
T1 sequence (O75469 whole entry): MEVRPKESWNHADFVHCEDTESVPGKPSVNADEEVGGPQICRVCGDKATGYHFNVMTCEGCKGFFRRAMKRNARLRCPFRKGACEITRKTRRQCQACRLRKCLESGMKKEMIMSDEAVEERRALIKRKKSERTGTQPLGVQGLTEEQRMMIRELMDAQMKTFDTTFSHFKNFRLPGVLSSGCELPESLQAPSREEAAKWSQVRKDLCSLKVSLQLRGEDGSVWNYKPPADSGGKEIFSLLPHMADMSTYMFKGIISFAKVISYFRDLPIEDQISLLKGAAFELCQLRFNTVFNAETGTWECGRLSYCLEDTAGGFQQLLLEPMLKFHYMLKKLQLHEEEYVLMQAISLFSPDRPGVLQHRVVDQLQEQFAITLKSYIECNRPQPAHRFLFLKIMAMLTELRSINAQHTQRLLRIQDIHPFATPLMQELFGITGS

Bile acid receptor = biological target: T2, Bile acid receptor (Homo sapiens, UniProt Q96RI1); assay: Agonist activity at GAL4-fused human FXR expressed in HEK293T cells assessed as activation of basal transcriptional activity after 20 hrs by dual-glo luciferase reporter gene assay; format: cell-based, HEK-293T
T2 sequence (Q96RI1 whole entry): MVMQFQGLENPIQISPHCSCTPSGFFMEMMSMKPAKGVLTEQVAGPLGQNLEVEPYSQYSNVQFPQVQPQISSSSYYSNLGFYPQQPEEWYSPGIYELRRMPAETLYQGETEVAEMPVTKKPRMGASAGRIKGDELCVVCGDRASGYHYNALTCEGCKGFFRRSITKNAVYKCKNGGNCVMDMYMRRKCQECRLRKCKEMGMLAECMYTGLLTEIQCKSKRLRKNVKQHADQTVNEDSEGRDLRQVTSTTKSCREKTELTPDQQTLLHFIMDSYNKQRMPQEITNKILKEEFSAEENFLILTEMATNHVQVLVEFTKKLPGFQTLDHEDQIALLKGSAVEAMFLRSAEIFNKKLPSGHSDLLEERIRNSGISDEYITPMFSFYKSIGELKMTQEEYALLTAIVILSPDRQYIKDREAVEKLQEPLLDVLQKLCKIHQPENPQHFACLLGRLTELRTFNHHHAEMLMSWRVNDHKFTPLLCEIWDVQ

[2] = biological target: T3, Nuclear receptor ROR-beta (Homo sapiens, UniProt Q92753); assay: Inverse agonist activity at GAL4-fused human RORb expressed in HEK293T cells assessed as suppression of basal transcriptional activity after 20 hrs by dual-glo luciferase reporter gene assay; format: cell-based, HEK-293T
T3 sequence (Q92753 whole entry): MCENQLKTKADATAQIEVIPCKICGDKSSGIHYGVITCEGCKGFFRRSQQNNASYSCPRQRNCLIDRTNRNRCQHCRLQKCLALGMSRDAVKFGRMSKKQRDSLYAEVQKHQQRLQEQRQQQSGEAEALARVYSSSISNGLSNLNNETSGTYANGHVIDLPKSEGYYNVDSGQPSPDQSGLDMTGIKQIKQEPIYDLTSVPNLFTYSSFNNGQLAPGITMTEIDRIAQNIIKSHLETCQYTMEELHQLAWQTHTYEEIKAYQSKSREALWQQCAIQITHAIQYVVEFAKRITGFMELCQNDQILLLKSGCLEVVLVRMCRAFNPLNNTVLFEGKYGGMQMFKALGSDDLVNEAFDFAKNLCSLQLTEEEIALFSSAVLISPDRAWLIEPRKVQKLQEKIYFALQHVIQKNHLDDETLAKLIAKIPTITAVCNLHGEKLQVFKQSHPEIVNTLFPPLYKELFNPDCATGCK

[3] = biological target: T4, Oxysterols receptor LXR-alpha (Homo sapiens, UniProt Q13133)
T4 sequence (Q13133 whole entry): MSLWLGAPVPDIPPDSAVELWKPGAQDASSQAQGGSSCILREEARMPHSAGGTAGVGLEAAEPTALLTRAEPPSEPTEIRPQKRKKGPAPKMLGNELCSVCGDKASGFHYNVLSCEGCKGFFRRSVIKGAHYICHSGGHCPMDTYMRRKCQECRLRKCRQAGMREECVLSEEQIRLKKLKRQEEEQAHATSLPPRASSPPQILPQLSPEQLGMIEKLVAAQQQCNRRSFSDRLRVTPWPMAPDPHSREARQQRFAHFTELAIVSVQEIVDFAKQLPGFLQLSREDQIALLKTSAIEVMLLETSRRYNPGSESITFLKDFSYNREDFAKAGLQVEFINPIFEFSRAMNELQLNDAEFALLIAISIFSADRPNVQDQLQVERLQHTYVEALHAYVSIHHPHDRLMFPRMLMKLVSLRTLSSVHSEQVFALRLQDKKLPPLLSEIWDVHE
Description: Agonist activity at GAL4-fused human LXRalpha expressed in HEK293T cells assessed as activation of basal transcriptional activity after 20 hrs by dual-glo luciferase reporter gene assay

[4] = biological target: T5, Nuclear receptor ROR-gamma (Homo sapiens, UniProt P51449)
T5 sequence (P51449 whole entry): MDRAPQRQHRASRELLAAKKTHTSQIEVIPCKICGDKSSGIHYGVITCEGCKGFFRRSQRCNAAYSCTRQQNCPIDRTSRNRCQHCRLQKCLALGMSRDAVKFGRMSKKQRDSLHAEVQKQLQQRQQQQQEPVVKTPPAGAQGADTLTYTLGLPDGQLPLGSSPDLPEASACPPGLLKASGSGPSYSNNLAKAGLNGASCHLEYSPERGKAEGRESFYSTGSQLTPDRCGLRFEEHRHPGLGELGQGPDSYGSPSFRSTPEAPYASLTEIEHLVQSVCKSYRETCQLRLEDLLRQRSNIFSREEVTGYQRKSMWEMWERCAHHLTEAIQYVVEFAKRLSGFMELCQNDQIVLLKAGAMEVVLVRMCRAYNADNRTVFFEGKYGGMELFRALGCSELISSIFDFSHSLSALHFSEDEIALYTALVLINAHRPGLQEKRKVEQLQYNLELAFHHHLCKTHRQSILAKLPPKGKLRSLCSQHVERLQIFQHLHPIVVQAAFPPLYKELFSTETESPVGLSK
Description: Inverse agonist activity at GAL4-fused human RORc expressed in HEK293T cells assessed as suppression of basal transcriptional activity after 20 hrs by dual-glo luciferase reporter gene assay

[5] = biological target: T5, Nuclear receptor ROR-gamma; remark: listed apart in the source
Description: Inverse agonist activity at N-terminal 6xHis-tagged human RORc ligand binding domain (241 to 486) expressed in bacterial expression system assessed as inhibition of SRC1 co-activator peptide recruitment after 3 hrs by TR-FRET analysis

[6] = biological target: T5, Nuclear receptor ROR-gamma; remark: listed apart in the source
Description: Displacement of [3H2]-25-hydroxycholesterol from N-terminal 6xHis-tagged human RORc ligand binding domain (241 to 486) expressed in bacterial expression system after 3 hrs by scintillation counting analysis

PXR (NR1I2) = biological target: T6, PXR (NR1I2) (Homo sapiens, UniProt O75469); assay: in vitro; conditions: HEK293T cells expressing GAL4-fused human PXR
T6 sequence (O75469 whole entry): T1 sequence (O75469 whole entry)
Description: Agonist activity at GAL4-fused human PXR expressed in HEK293T cells assessed as activation of basal transcriptional activity after 20 hrs by dual-glo luciferase reporter gene assay relative to apo-receptor

SMILES | EC50 [1] | EC50 (Bile acid receptor) | EC50 [2] | EC50 [3] | EC50 [4] | EC50 [5] | IC50 [6] | fold induction at 20 h (PXR (NR1I2))
CCN(c1ccc(C(O)(C(F)(F)F)C(F)(F)F)cc1)S(=O)(=O)c1ccccc1 | 39 nM | 9000 nM | 4000 nM | 3000 nM | 593 nM | 190 nM | 245 nM | 24
N#Cc1ccc(S(=O)(=O)N(CC(F)(F)F)c2ccc(C(O)(C(F)(F)F)C(F)(F)F)cc2)cc1 | 571 nM | 3000 nM | 5000 nM | > 10000 nM | 192 nM | 61 nM | 50 nM | 27
O=S(=O)(c1ccc(F)cc1)N(CC(F)(F)F)c1ccc(C(O)(C(F)(F)F)C(F)(F)F)cc1 | 194 nM | 1000 nM | 6000 nM | 719 nM | 89 nM | 19 nM | 34 nM | 30
